Laboratory results taken from patent US12286405B2, “Scalable synthesis of dual-target inhibitor of cannabinoid-1 receptor and inducible nitric oxide synthase” (THE UNITED STATES OF AMERICA, AS REPRESENTED BY THE …, priority 2019, dated 2025).
≈ marks a conversion by molar mass, not a printed value.

Tests used:
[1] = solubility of rac-1 in organic solvent (dichloromethane); assay type: physicochemical; details: organic solvent or mixture
From the text: To overcome this obstacle, the present inventors discovered an enantioselective approach to (S,1E,NE)-N-(1-aminoethylidene)-3-(4-chlorophenyl)-4-phenyl-N′-((4-(trifluoromethyl)phenyl)sulfonyl)-4,5-dihydro-1H-pyrazole-1-carboximidamide (S)-1 in high optical purity.

[2] = target: CB1R (Homo sapiens, UniProt P21554); details: in vivo; mediated by the CB1R antagonism; cited from earlier work
[3] = test system: animal models of fibrosis; details: mediated by iNOS inhibition and CB1R antagonism; cited from earlier work

Sequence of CB1R (P21554 whole entry): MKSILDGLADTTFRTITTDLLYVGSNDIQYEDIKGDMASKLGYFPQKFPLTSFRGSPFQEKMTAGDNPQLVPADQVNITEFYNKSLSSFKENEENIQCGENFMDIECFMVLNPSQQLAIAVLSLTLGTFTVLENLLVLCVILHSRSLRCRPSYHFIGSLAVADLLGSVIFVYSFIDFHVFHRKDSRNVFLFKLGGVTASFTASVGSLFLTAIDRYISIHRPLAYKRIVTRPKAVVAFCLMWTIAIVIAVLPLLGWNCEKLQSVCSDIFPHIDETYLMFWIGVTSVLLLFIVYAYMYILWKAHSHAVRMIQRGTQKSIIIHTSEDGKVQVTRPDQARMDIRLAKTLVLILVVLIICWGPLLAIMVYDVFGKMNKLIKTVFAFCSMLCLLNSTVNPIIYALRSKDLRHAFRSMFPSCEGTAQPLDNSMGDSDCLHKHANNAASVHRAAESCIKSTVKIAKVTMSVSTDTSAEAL

| SMILES | solubility [1] | food intake [2] | antifibrotic effect [3] |
| --- | --- | --- | --- |
| C/C(N)=N\C(=N/S(=O)(=O)c1ccc(C(F)(F)F)cc1)N1CC(c2ccccc2)C(c2ccc(Cl)cc2)=N1 (racemic) [rac-1, (1E,NE)-N-(1-aminoethylidene)-3-(4-chlorophenyl)-4-phenyl-N′-((4-(trifluoromethyl)phenyl)sulfonyl)-4,5-dihydro-1H-pyrazole-1-carboximidamide] | ~1000 µg/mL (≈ 1820 µM) |  |  |
| C/C(N)=N\C(=N\S(=O)(=O)c1ccc(C(F)(F)F)cc1)N1C[C@H](c2ccccc2)C(c2ccc(Cl)cc2)=N1 [(S)-1, (S,1E,NE)-N-(1-aminoethylidene)-3-(4-chlorophenyl)-4-phenyl-N′-((4-(trifluoromethyl)phenyl)sulfonyl)-4,5-dihydro-1H-pyrazole-1-carboximidamide] |  | reduction of food intake | antifibrotic effect |
